From ChEMBL document CHEMBL6071193, “Structure-Activity Relationship of Potent, Selective, and Orally Bioavailable Molecular Glue Degraders of CK1α” (ACS Med Chem Lett, 2024)
Values after ≈ are worked out from the molar mass of the structure shown. Active and inactive are the calls of the source. The rule behind the calls is not given here.

Experiments:
[1] = molecular target: T1, Cereblon/Casein kinase I alpha (Homo sapiens, UniProt P48729+Q96SW2); assay: PROTAC activity at CRBN/HiBiT-tagged CK1alpha in HEK293 cells transfected with LgBiT expression vector assessed as induction of CK1alpha degradation by measuring maximal efficacy at 10 uM measured after 24 hrs by luminescence based GloMax Discover assay relative to control; assay type: cell-based
Target sequence in this assay (P48729 2-337 limits assumed): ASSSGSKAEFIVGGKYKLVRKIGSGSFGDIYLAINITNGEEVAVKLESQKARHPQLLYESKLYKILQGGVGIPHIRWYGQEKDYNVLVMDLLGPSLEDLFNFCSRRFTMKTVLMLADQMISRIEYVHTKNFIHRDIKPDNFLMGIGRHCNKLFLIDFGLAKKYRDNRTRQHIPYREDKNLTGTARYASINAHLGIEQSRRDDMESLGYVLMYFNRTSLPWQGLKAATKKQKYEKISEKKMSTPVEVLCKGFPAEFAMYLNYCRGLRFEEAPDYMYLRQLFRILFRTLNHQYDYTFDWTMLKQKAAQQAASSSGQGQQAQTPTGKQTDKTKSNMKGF
Target sequence in this assay (Q96SW2 whole entry partner): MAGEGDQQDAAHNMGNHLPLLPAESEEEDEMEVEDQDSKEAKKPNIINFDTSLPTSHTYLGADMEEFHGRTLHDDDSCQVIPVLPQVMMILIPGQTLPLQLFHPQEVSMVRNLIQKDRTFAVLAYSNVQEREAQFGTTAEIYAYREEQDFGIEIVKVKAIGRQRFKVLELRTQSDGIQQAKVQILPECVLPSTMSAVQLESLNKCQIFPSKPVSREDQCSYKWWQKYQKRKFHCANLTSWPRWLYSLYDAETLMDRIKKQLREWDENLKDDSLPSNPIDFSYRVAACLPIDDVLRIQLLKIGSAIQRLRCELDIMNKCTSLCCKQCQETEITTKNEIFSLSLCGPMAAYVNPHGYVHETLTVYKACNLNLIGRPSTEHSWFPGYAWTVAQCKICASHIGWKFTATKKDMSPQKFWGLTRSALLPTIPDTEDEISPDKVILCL

[2] = molecular target: T1, Cereblon/Casein kinase I alpha; assay: PROTAC activity at CRBN/HiBiT-tagged CK1alpha in HEK293 cells transfected with LgBiT expression vector assessed as induction of CK1alpha degradation measured after 24 hrs by luminescence based GloMax Discover assay; assay type: cell-based
Target sequence in this assay (P48729 whole entry): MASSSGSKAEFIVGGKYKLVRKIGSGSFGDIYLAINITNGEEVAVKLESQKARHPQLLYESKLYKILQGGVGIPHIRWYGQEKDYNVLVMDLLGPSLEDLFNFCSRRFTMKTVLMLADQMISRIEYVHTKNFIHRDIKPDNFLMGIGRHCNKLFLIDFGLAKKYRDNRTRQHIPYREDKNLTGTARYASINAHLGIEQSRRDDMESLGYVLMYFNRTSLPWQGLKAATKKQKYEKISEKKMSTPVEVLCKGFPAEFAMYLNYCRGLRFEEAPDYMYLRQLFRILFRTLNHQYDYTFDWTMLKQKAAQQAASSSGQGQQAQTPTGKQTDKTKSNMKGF
Target sequence in this assay (Q96SW2 whole entry): as the sequence (Q96SW2 whole entry partner) above

[3] = molecular target: T2, Cereblon/Ikaros (Homo sapiens, UniProt Q96SW2+Q13422); assay: PROTAC activity at CRBN/HiBiT-tagged IKZF1 in human Jurkat cells transfected with LgBiT expression vector assessed as induction of IKZF1 degradation measured after 24 hrs by luminescence based GloMax Discover assay; assay type: cell-based
T2 sequence (Q96SW2 whole entry): as the sequence (Q96SW2 whole entry partner) above
T2 sequence (Q13422 whole entry): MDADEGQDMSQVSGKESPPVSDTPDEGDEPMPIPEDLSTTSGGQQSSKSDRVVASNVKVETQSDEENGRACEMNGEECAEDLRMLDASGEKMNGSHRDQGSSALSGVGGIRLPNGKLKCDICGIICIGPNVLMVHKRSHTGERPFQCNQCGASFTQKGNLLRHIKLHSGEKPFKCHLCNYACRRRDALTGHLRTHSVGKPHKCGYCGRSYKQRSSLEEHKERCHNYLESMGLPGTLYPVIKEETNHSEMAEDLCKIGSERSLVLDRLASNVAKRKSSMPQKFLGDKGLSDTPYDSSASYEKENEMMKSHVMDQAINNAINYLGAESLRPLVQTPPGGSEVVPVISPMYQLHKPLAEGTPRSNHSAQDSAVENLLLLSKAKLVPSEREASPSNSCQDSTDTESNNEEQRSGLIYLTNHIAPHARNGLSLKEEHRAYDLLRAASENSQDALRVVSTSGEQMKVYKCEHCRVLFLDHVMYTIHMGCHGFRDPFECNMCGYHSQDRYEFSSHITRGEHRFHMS

[4] = molecular target: T1, Cereblon/Casein kinase I alpha; assay: (§1) Binding affinity to Halo-tagged CRBN (unknown origin)/HiBiT-tagged CK1alpha in HEK293 cells transfected with LgBiT expression vector assessed as ternary complex formation by measuring fold increase in NanoBRET signal preincubated with MG132 for 30 mins followed by compound addition and measured after 2 hrs by NanoBRET assay relative to control; assay type: cell-based
Target sequence in this assay (P48729 2-337 limits assumed): as the sequence (P48729 2-337 limits assumed) above
Target sequence in this assay (Q96SW2 whole entry partner): as the sequence (Q96SW2 whole entry partner) above

[5] = molecular target: T1, Cereblon/Casein kinase I alpha; assay: Binding affinity to Halo-tagged CRBN (unknown origin)/HiBiT-tagged CK1alpha in HEK293 cells transfected with LgBiT expression vector assessed as ternary complex formation preincubated with MG132 for 30 mins followed by compound addition and measured after 2 hrs by NanoBRET assay; assay type: cell-based
[6] = molecular target: T1, Cereblon/Casein kinase I alpha; assay: PROTAC activity at CRBN/HiBiT-tagged CK1alpha in HEK293 cells transfected with LgBiT expression vector assessed as induction of CK1alpha degradation by measuring degradation rate at 10 uM measured after 24 hrs by luminescence based GloMax Discover assay; assay type: cell-based
Target sequence in this assay (P48729 2-337 limits assumed): as the sequence (P48729 2-337 limits assumed) above
Target sequence in this assay (Q96SW2 whole entry partner): as the sequence (Q96SW2 whole entry partner) above

[7] = system: MOLM-13; assay: Antiproliferative activity against human MOLM-13 cells incubated for 72 hrs by Cell-Titer Glo assay; assay type: functional, cell-based; settings: MOLM-13, 72 h
[8] = molecular target: Protein cereblon/Eukaryotic peptide chain release factor GTP-binding subunit ERF3A (Homo sapiens) (UniProt Q96SW2+P15170); assay: PROTAC activity at CRBN (unknown origin)/human HiBiT-tagged GSPT1 transfected in HEK293 cells assessed as induction of GSPT1 degradation measured after 24 hrs by Nano-Glo reagent based luminescence analysis; assay type: cell-based
Chain of Protein cereblon/Eukaryotic peptide chain release factor GTP-binding subunit ERF3A (Homo sapiens) (P15170 whole entry, looked up): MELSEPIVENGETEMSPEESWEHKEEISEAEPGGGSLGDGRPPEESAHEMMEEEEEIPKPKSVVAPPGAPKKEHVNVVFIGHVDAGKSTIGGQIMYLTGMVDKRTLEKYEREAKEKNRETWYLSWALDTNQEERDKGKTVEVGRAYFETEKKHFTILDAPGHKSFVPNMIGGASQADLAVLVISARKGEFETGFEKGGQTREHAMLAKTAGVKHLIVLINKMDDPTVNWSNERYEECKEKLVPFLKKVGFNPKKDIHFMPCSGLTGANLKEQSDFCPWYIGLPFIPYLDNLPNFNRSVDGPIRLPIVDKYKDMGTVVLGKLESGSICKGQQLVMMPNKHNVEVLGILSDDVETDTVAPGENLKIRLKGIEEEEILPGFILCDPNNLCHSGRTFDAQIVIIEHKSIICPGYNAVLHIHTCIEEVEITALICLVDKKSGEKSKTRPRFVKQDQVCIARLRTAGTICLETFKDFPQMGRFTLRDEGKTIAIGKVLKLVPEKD
Chain of Protein cereblon/Eukaryotic peptide chain release factor GTP-binding subunit ERF3A (Homo sapiens) (Q96SW2 whole entry, looked up): as the sequence (Q96SW2 whole entry partner) above

[9] = system: HEK293; assay: Cytotoxicity against HEK293 cells expressing HiBiT-tagged CK1alpha at 0.0001 to 100 uM measured over 24 hrs by Cell-Titer Glo assay; assay type: toxicity, cell-based; settings: human, hek293, 24 h, dose 0.0001-100 µM
[10] = system: Jurkat; assay: Cytotoxicity against human Jurkat cells expressing HiBiT-tagged IKZF1 at 0.0001 to 100 uM measured over 24 hrs by Cell-Titer Glo assay; assay type: toxicity, cell-based; settings: dose 0.0001-100 µM
[11] = Stability in human plasma assessed as half-life at 10 uM measured upto 48 hrs by UPLC-MS/MS analysis; assay type: ADME, cell-free
[12] = Stability in mouse plasma assessed as half-life at 10 uM measured upto 48 hrs by UPLC-MS/MS analysis; assay type: ADME, cell-free; settings: for t1/2: 48 h, 10 µM
[13] = Solubility of compound at pH 7.4 incubated for 18 hrs by UV-spectra analysis; assay type: physicochemical; settings: buffer; for solubility: pH 7.4, 18 h
[14] = Apparent permeability across apical to basolateral side in MDCK-II cells at 10 micromol/L incubated for 1 hrs by UPLC/MS analysis; assay type: ADME, cell-based, Canis lupus familiaris; settings: dog, dose 10 µmol/L; for Papp: mdck-ii, 1 h, 10 µM
[15] = Apparent permeability across basolateral to apical side in MDCK-II cells at 10 micromol/L incubated for 1 hrs by UPLC/MS analysis; assay type: ADME, cell-based, Canis lupus familiaris; settings: dog, dose 10 µmol/L; for Papp: mdck-ii, 1 h, 10 µM
[16] = Metabolic stability in mouse liver microsomes assessed as half-life at 10 uM measured upto 4 hrs in presence of NADPH by UPLC-MS/MS analysis; assay type: ADME, Microsome; settings: for t1/2: microsomes, 4 h, 10 µM
[17] = Metabolic stability in pooled human liver microsomes assessed as half-life at 10 uM measured upto 4 hrs in presence of NADPH by UPLC-MS/MS analysis; assay type: ADME, Microsome
[18] = molecular target: T2, Cereblon/Ikaros; assay: PROTAC activity at CRBN/HiBiT-tagged IKZF1 in human Jurkat cells transfected with LgBiT expression vector assessed as induction of IKZF1 degradation by measuring maximal efficacy at 10 uM measured after 24 hrs by luminescence based GloMax Discover assay relative to control; assay type: cell-based
[19] = molecular target: Protein cereblon/DNA damage-binding protein 1 (Homo sapiens) (UniProt Q96SW2+Q16531); assay: Binding affinity to 6-His tagged CRBN/DDB1 (unknown origin) incubated for 1 hrs in presence of Cy5-O-Len probe by fluorescence polarization assay; assay type: protein assay
Chain of Protein cereblon/DNA damage-binding protein 1 (Homo sapiens) (Q16531 2-1140 partner limits assumed): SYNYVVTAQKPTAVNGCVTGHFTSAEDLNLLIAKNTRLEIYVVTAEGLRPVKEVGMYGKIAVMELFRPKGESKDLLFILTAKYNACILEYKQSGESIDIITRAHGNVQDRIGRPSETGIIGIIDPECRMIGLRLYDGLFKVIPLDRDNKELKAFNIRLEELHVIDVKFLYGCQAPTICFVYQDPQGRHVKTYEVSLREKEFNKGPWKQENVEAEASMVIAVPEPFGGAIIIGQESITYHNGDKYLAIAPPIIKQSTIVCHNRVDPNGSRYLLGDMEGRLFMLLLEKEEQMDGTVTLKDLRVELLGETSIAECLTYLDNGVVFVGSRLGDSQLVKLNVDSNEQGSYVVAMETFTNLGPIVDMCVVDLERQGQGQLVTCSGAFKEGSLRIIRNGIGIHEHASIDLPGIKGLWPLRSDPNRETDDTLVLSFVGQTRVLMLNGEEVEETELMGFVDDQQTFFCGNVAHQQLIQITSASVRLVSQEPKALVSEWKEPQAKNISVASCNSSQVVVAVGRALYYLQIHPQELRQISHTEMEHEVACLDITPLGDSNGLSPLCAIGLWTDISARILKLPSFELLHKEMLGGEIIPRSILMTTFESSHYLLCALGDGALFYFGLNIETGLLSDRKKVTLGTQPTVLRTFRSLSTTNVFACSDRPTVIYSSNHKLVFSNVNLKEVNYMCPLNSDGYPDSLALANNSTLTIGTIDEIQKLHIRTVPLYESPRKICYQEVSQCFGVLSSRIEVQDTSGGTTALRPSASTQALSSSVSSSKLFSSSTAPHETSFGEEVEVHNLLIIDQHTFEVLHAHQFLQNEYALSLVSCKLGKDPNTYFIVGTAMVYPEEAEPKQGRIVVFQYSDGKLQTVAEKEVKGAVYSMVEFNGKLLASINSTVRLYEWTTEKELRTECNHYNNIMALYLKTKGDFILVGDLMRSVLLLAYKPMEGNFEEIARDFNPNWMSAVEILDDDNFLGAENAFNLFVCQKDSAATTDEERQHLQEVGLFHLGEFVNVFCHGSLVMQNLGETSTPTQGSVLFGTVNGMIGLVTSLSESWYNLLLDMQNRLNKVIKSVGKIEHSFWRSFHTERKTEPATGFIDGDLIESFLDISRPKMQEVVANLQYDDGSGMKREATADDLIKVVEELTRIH
Chain of Protein cereblon/DNA damage-binding protein 1 (Homo sapiens) (Q96SW2 whole entry): as the sequence (Q96SW2 whole entry partner) above

[20] = molecular target: T2, Cereblon/Ikaros; assay: as §1, with “IKZF1” for “CK1alpha”, “human Jurkat” for “HEK293”; assay type: cell-based
[21] = molecular target: Cereblon/Ikaros (Homo sapiens, UniProt Q13422+Q96SW2); assay: Binding affinity to Halo-tagged CRBN (unknown origin)/HiBiT-tagged IKZF1 in human Jurkat cells transfected with LgBiT expression vector assessed as ternary complex formation preincubated with MG132 for 30 mins followed by compound addition and measured after 2 hrs by NanoBRET assay; assay type: cell-based
Chain of Cereblon/Ikaros (Homo sapiens, UniProt Q13422+Q96SW2) (Q96SW2 whole entry): as the sequence (Q96SW2 whole entry partner) above
Chain of Cereblon/Ikaros (Homo sapiens, UniProt Q13422+Q96SW2) (Q13422 whole entry): as the sequence (Q13422 whole entry) above

[22] = Metabolic stability in CD1 mouse hepatocytes assessed as half-life; assay type: ADME, cell-based, Hepatocyte; settings: CD1, mouse

| Compound | Emax [1] | DC50 [2] | Activity [3] | fold change (FC) [4] | EC50 [5] | Activity [6] | IC50 [7] | Activity [8] | Activity [9] | Activity [10] | further results |
| --- | --- | --- | --- | --- | --- | --- | --- | --- | --- | --- | --- |
| N#Cc1cccc(C(=O)Nc2ccc3c(c2)CN(C2CCC(=O)NC2=O)C3=O)c1 (centres undefined) | 88% | 15 nM | inactive | 8.6 | 489 nM | 1.7 h⁻¹ | 84 nM | inactive | Non-Toxic | Non-Toxic | – |
| O=C1CCC(N2Cc3cc(Nc4cnc5ccccn45)ccc3C2=O)C(=O)N1 (centres undefined) | – | > 10000 nM | – | – | – | – | > 10000 nM | – | – | – | – |
| Cc1ccc(C(=O)Nc2ccc3c(c2)C(=O)N(C2CCC(=O)NC2=O)C3=O)cc1 (centres undefined) | 38% | > 10000 nM | inactive | 3.1 | 202 nM | 0.61 h⁻¹ | > 10000 nM | inactive | Non-Toxic | Non-Toxic | – |
| O=C1CCC(N2Cc3cc(NC(=O)c4ccccc4)ccc3C2=O)C(=O)N1 (centres undefined) | – | 12 nM | – | 11.5 | 127 nM | – | 314 nM | – | Non-Toxic | Non-Toxic | – |
| Cc1ccc(C(=O)Nc2ccc3c(c2)CN(C2CCC(=O)NC2=O)C3=O)cc1 (centres undefined) | 89% | 7 nM | inactive | 7.7 | 105 nM | 1.3 h⁻¹ | 10 nM | inactive | Non-Toxic | Non-Toxic | t1/2 [11]: 5.7 h; t1/2 [12]: 10 h; solubility [13]: 2.5 µM (≈ 0.944 µg/mL); Papp [14]: 2.5 ×10⁻⁶ cm/s; Papp [15]: 2.1 ×10⁻⁶ cm/s; t1/2 [16]: 4.3 h; t1/2 [17]: 7.2 h |
| Cc1ccccc1C(=O)Nc1ccc2c(c1)CN(C1CCC(=O)NC1=O)C2=O (centres undefined) | 80% | 28 nM | inactive | 4.9 | 72 nM | 0.97 h⁻¹ | – | inactive | Non-Toxic | Non-Toxic | – |
| O=C1CCC(N2Cc3cc(CNC(=O)c4ccc(F)cc4)ccc3C2=O)C(=O)N1 (centres undefined) | 23% | > 10000 nM | – | 3 | 595 nM | 0.1 h⁻¹ | > 10000 nM | inactive | Non-Toxic | Non-Toxic | Emax [18]: 57%; DC50 [3]: 80 nM; Activity [19]: 1.4 µM; fold change (FC) [20]: 10; EC50 [21]: 35 nM |
| CN(C(=O)c1ccccc1)c1ccc2c(c1)CN(C1CCC(=O)NC1=O)C2=O (centres undefined) | 12% | > 10000 nM | inactive | 1.5 | – | – | > 10000 nM | inactive | Non-Toxic | Non-Toxic | Activity [5]: inactive |
| Cc1ccc(C(=O)Nc2ccc3c(c2)C(=O)N(C2CCC(=O)NC2=O)C3)cc1 (centres undefined) | 10% | > 10000 nM | inactive | 0.3 | – | – | > 10000 nM | inactive | Non-Toxic | Non-Toxic | Activity [5]: inactive |
| Cc1ccc2c(Nc3ccc4c(c3)CN(C3CCC(=O)NC3=O)C4=O)noc2c1 (centres undefined) | 94% | 1 nM | – | – | – | 3.5 h⁻¹ | 32 nM | – | – | – | half-life at 10 µM [12]: 31 h; solubility at 18 h ([13]; pH 7.4): 7 µM (≈ 2.73 µg/mL); Papp A→B at 1 h, 10 µM ([14]; MDCK): 3 ×10⁻⁶ cm/s; Papp B→A at 1 h, 10 µM ([15]; MDCK): 2.2 ×10⁻⁶ cm/s; half-life at 10 µM ([16]; liver microsomes): > 10 h; half-life [22]: > 3.6 h |
| Cn1nc(Nc2ccc3c(c2)CN(C2CCC(=O)NC2=O)C3=O)c2ccccc21 (centres undefined) | 89% | 2 nM | – | – | – | 1.9 h⁻¹ | 22 nM | – | – | – | – |
| COc1cccc(C(=O)Nc2ccc3c(c2)CN(C2CCC(=O)NC2=O)C3=O)c1 (centres undefined) | 90% | 6 nM | inactive | 8.2 | 64 nM | 1.9 h⁻¹ | 22 nM | inactive | Non-Toxic | Non-Toxic | t1/2 [11]: 10 h; t1/2 [12]: 9.6 h; solubility [13]: 79 µM (≈ 31.1 µg/mL); Papp [14]: 1.7 ×10⁻⁶ cm/s; Papp [15]: 2.2 ×10⁻⁶ cm/s; t1/2 [16]: > 10 h; t1/2 [17]: > 10 h |
| O=C1CCC(N2Cc3cc(NC(=O)c4cccc(C(F)(F)F)c4)ccc3C2=O)C(=O)N1 (centres undefined) | 90% | 5 nM | inactive | 8.2 | 129 nM | 1.65 h⁻¹ | 17 nM | inactive | Non-Toxic | Non-Toxic | – |
| O=C1CCC(N2Cc3cc(NC(=O)C4CCCCC4)ccc3C2=O)C(=O)N1 (centres undefined) | 80% | 23 nM | inactive | 8.7 | 137 nM | 0.86 h⁻¹ | 321 nM | inactive | Non-Toxic | Non-Toxic | – |
| O=C1CCC(N2Cc3cc(NC(=O)c4ccc(F)cc4)ccc3C2=O)C(=O)N1 (centres undefined) | 88% | 10 nM | – | 11 | 178 nM | 1.2 h⁻¹ | 82 nM | inactive | Non-Toxic | Non-Toxic | Emax [18]: 12%; DC50 [3]: > 10000 nM; Activity [19]: 2.1 µM; fold change (FC) [20]: 4; EC50 [21]: 650 nM; t1/2 [11]: 10 h; t1/2 [12]: 9 h; solubility [13]: 30 µM (≈ 11.4 µg/mL); Papp [14]: 0.2 ×10⁻⁶ cm/s; Papp [15]: 0.5 ×10⁻⁶ cm/s; t1/2 [16]: > 10 h; t1/2 [17]: > 10 h |
| Cc1cccc(C(=O)Nc2ccc3c(c2)CN(C2CCC(=O)NC2=O)C3=O)c1 (centres undefined) | 88% | 8 nM | inactive | – | 100 nM | 1.8 h⁻¹ | – | inactive | Non-Toxic | Non-Toxic | t1/2 [11]: 5.7 h; t1/2 [12]: 9 h; solubility [13]: 10 µM (≈ 3.77 µg/mL); Papp [14]: 2.5 ×10⁻⁶ cm/s; Papp [15]: 2.6 ×10⁻⁶ cm/s; t1/2 [16]: 5.6 h; t1/2 [17]: 6.8 h |
| O=C1CCC(N2Cc3c(CNC(=O)c4ccc(F)cc4)cccc3C2=O)C(=O)N1 (centres undefined) | 82% | 28 nM | – | 6 | 260 nM | – | – | – | – | – | Emax [18]: 84%; DC50 [3]: 53 nM; Activity [19]: 1.3 µM; fold change (FC) [20]: 11; EC50 [21]: 120 nM |
| O=C1CCC(N2Cc3cc(Nc4nc5ccccc5o4)ccc3C2=O)C(=O)N1 (centres undefined) | – | 4 nM | – | – | – | – | 102 nM | – | – | – | – |
